Reference: US12318361B2, “Methods for treating cardiovascular diseases” (Olatec Therapeutics LLC, priority 2017, dated 2025)

How the values were obtained:
[1] = test system: rats, thrombus formation in abdominal aorta; assay: Thrombus formation in anesthetized rats (abdominal aorta stenosis and compression injury); format: in vivo, rats (CD-1); conditions: intravenous via tail vein, 5 min before injury; written in present tense
Protocol: To evaluate the effect of dapansutrile on thrombus formation in vivo, the following experimental protocol is performed.
Rats (CD-1; male; approximately 350 grams; Charles River, Raleigh, NC), are anesthetized with sodium pentobarbital (70 mg/kg i.p.). The abdomens are shaved and a 22 gauge intravenous catheter is inserted into a lateral tail vein. A midline incision is made and the intestines are wrapped in saline-soaked gauze and positioned so the abdominal aorta is accessible. […] All branches from the aorta in this section are ligated with 4-0 silk suture. A 2.5 mm diameter flow probe connected to a Transonic flow meter is placed on the artery and a baseline (pre-stenosis) flow is recorded. Two clips are placed around the artery decreasing the vessel diameter by approximately 80%. A second baseline flow measurement is taken (post-stenosis) and the hyperemic response is tested. Animals are then treated with either Rho kinase inhibitor compound or saline intravenously via tail vein catheter. Thrombosis is induced five minutes after treatment by repeated external compressions of the vessel with hemostatic forceps. Two minutes post-injury, the vessel compressions are repeated and a 10 minute period of flow monitoring is started. Animals are monitored continuously for a minimum of the first ten minutes post-injury. […]

caspase-1 = assay: Caspase-1 activity in J774A.1 cell lysates after LPS and nigericin stimulation; format: cell-based, murine; conditions: 50 μM, J774A.1 cells, n=3, p<0.05
Protocol: J774A.1 murine macrophages cells were stimulated with 1 μg/ml lipopolysaccharide (LPS) for 4 hours and either nigericin (NIG, 10 μM) or ATP (5 mM) was added for 1 hour. OLT1177™ was added to the cells either 30 minutes following LPS stimulation or at the same time as ATP.
1 cell lysates following LPS and NIG stimulation in presence of 50 μM dapansutrile (OLT1177™). Caspase-1 activity is expressed as percent change of the mean value of each assay (n=3) with LPS/NIG set at 100%. Caspase-1 activity was reduced by 35% (p<0.05) in an enzymatic assay of cell lysate from stimulated cells in the presence of dapansutrile, comparing with control.

[2] = test system: adult CD1 male mice, acute myocardial infarction; assay: Acute myocardial infarction (30 min ischemia, 24 h reperfusion), infarct sparing effect, Example 8; format: in vivo; conditions: 60 mg/kg IP immediately after reperfusion, vs vehicle
Protocol: An acute myocardial infarction in adult CD1 male mice was induced by performing a transient surgical ligation of the left coronary artery for 30 minutes followed by reperfusion for 24 hours: 3 mice received OLT1177™ (60 mg/kg) given intraperitoneally immediately after reperfusion and 8 mice received an equal volume of vehicle (NaCl 0.9%). After 24 hours, left ventricular fractional shortening, a surrogate for cardiac systolic function, was measured, using transthoracic echocardiography. After the echocardiogram, the mice were prepared for infarct size measurement using the Triphenyl-Tetrazolium-Chloride (TTC) and Evans Blue technique and then sacrificed: the area of the heart considered not ischemia (non-risk area) appeared blue, the area of the heart that was at risk but viable appeared red, the infarct myocardium appeared pale-white. The left panel of FIG. 6 depicts the TTC/Evans Blue staining of one mouse treated with vehicle and one with OLT1177™: it is apparent that the area of infarct is much larger in the vehicle.

[3] = test system: dogs, occlusive coronary thrombus formation; assay: Thrombus formation in anesthetized dogs (anodal current to left circumflex coronary artery); format: in vivo; conditions: intravenous, about 30 min before anodal current; written in present tense
Protocol: To evaluate the effect of compound of Formula I or II on dynamic thrombus formation in vivo, the following experimental protocol, similar to the method of J. L. Romson et al. (Thromb. Res. 17:841-853, 1980), is performed.
Surgical Preparation and Instrumentation. Briefly, purpose-bred dogs are anesthetized, intubated and ventilated with room air. The heart is exposed by a left thoracotomy in the fifth intercostal space and suspended in a pericardial cradle. A 2-3 cm segment of the left circumflex coronary artery (LCCA) is isolated by blunt dissection. The artery is instrumented from proximal to distal with a flow probe, a stimulation electrode, and a Goldblatt clamp. The flow probe monitors the mean and phasic LCCA blood flow velocities. […]
Experimental Protocol: Dogs are randomized to one of four treatment protocols in which the control group receives saline intravenously and the three drug-treated groups are administered Rho kinase inhibitor compound intravenously. […] The number and frequency of cyclic flow variations (CFV) that precede formation of an occlusive thrombus are recorded. […]

[4] = test system: mice, intra-articular zymosan arthritis model; assay: Zymosan-induced knee joint arthritis in mice; format: in vivo; conditions: 600 mg/kg oral gavage, 5 doses, 24 h after zymosan
Protocol: Zymosan injected directly into the knee joint of mice elicits an inflammatory response and is used as a model of arthritis (Verschure et al, Ann. Rheum Dis. 53:455-460, 1994). Endpoints measured in this model include knee joint swelling score, cytokine levels in the synovial tissue and microscopic pathology of the knee.
Arthritis was induced in mice by intra-articular injection of zymosan (180 μg) into the knee joint (at time zero) of both knees in each mouse. Mice were treated by oral gavage with vehicle (saline, n=5) or dapansutrile (drug) in vehicle (600 mg/kg, n=4) at times −25 hr, −13 hr, and −1 hr. After zymosan injection at time zero, mice were further treated with vehicle or dapansutrile (600 mg/kg) at times +11 hr and +23 hr. Mice were terminated 24 hours after the zymosan injection.
Macroscopic joint swelling was assessed on all knees after the skin is removed using a scoring system ranging from 0 to 3, with 0 being no swelling and 3 being severe swelling.
In addition, synovial membrane was taken from one knee per mouse and the cells were lysed for measurement of mouse IL-1β, using an ELISA kit from R&D Systems, Inc., following manufacturer's protocols. The results are shown as mean ±standard error of mean and statistical evaluation is performed (see FIG. 2).

CS(=O)(=O)CCC#N [OLT1177™, 3-methanesulfonyl-propionitrile]
histological evidence of thrombosis [1]: decrease | vessel injury-induced flow reduction [1]: decrease | reduction of caspase-1 activity in cell lysate (LPS/NIG set at 100%) (caspase-1): 35% | infarct size as percentage of the area-at-risk [2]: significantly smaller | left ventricular systolic function (fractional shortening) [2]: preservation | number and frequency of cyclic flow variations that precede formation of an occlusive thrombus [3]: significantly increases | level of IL-1β in synovial membrane ([4]; vs untreated mice): significantly reduced | macroscopic joint swelling (score 0 to 3) ([4]; vs vehicle-treated mice): significant reduction
